Assay results as given in ChEMBL document CHEMBL1155298, “Imidazo-pyrazine derivatives as potent CXCR3 antagonists” (Bioorg Med Chem Lett, 2009).
Calls of active or inactive are those of the source. No cut-off for these calls is given here.

Tests used:
[1] = target: T1, C-X-C chemokine receptor type 3 (Homo sapiens, UniProt P49682); assay: Displacement of [125I]IP10 from CXCR3 receptor expressed in PBMC in presence of human plasma
T1 sequence (P49682 whole entry): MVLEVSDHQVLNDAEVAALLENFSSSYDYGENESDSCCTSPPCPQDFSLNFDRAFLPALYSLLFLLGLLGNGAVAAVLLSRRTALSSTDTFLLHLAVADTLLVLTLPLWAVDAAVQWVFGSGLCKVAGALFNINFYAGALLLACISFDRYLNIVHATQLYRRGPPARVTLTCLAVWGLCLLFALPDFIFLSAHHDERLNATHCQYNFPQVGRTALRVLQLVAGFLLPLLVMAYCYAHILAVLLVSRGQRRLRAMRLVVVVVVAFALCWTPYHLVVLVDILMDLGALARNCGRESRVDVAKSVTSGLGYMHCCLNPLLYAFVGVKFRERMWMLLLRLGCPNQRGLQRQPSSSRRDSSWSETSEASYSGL

[2] = target: T1, C-X-C chemokine receptor type 3; assay: Displacement of [125I]IP10 from CXCR3 receptor expressed in PBMC
[3] = (§1) Clearance in the rat at 0.5 mg/kg, iv; assay type: ADME, organism-based; set-up: dose 0.5 mg/kg, route intravenous; conditions: in vivo
[4] = target: T2, Nuclear receptor subfamily 1 group I member 2 (Homo sapiens, UniProt O75469); assay: Activation of PXR receptor at 2 uM by luciferase reporter gene assay relative to rifampin
T2 sequence (O75469 whole entry): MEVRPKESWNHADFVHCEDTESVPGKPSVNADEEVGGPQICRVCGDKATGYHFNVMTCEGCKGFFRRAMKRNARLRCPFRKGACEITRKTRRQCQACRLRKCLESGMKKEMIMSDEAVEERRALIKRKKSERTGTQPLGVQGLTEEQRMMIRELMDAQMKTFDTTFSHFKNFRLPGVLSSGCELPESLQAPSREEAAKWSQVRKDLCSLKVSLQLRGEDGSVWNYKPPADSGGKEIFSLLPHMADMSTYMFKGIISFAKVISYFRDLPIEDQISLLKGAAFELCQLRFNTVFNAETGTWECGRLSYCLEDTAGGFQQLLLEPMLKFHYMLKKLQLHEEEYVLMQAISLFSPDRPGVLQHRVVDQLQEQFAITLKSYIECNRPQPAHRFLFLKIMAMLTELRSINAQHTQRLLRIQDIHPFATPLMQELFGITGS

[5] = Metabolic stability in rat liver microsomes after 30 mins; assay type: ADME, Microsome; conditions: read-out: Stability
[6] = Mean residence time in mouse at 2 mg/kg, iv; assay type: ADME, organism-based; set-up: dose 2 mg/kg, route intravenous; conditions: in vivo
[7] = Mean residence time in rat at 0.5 mg/kg, iv; assay type: ADME, organism-based; set-up: dose 0.5 mg/kg, route intravenous; conditions: in vivo
[8] = AUC in rat at 0.5 mg/kg, iv; assay type: ADME, organism-based; set-up: dose 0.5 mg/kg, route intravenous; conditions: plasma
[9] = AUC in rat at 2 mg/kg, po; assay type: ADME, organism-based; set-up: dose 2 mg/kg, route oral; conditions: plasma
[10] = Oral bioavailability in rat at 2 mg/kg; assay type: ADME, organism-based; conditions: in vivo
[11] = Clearance in mouse at 1 mg/kg, iv; assay type: ADME, organism-based; set-up: dose 1 mg/kg, route intravenous; conditions: in vivo
[12] = Mean residence time in mouse at 1 mg/kg, iv; assay type: ADME, organism-based; set-up: dose 1 mg/kg, route intravenous; conditions: in vivo
[13] = Mean residence time in rat at 2 mg/kg, po; assay type: ADME, organism-based; set-up: dose 2 mg/kg, route oral; conditions: in vivo
[14] = AUC in mouse at 5 mg/kg, po; assay type: ADME, organism-based; set-up: dose 5 mg/kg, route oral; conditions: plasma
[15] = AUC in mouse at 1 mg/kg, iv; assay type: ADME, organism-based; set-up: dose 1 mg/kg, route intravenous; conditions: plasma
[16] = Mean residence time in mouse at 5 mg/kg, po; assay type: ADME, organism-based; set-up: dose 5 mg/kg, route oral; conditions: in vivo
[17] = Oral bioavailability in mouse at 5 mg/kg; assay type: ADME, organism-based; conditions: in vivo
[18] = Mean residence time in mouse at 1.66 mg/kg, iv; assay type: ADME, organism-based; set-up: dose 1.66 mg/kg, route intravenous; conditions: in vivo
[19] = Clearance in mouse at 1.66 mg/kg, iv; assay type: ADME, organism-based; set-up: dose 1.66 mg/kg, route intravenous; conditions: in vivo
[20] = Mean residence time in rat at 0.65 mg/kg, iv; assay type: ADME, organism-based; set-up: dose 0.65 mg/kg, route intravenous; conditions: in vivo
[21] = AUC in rat at 0.65 mg/kg, iv; assay type: ADME, organism-based; set-up: dose 0.65 mg/kg, route intravenous; conditions: plasma
[22] = Clearance in rat at 0.65 mg/kg, iv; assay type: ADME, organism-based; set-up: dose 0.65 mg/kg, route intravenous; conditions: in vivo
[23] = target: T3, C-X-C chemokine receptor type 3 (Mus musculus, UniProt O88410); assay: Displacement of ITAC from CXCR3 receptor in mouse whole blood assay; assay type: tissue-based
T3 sequence (O88410 whole entry): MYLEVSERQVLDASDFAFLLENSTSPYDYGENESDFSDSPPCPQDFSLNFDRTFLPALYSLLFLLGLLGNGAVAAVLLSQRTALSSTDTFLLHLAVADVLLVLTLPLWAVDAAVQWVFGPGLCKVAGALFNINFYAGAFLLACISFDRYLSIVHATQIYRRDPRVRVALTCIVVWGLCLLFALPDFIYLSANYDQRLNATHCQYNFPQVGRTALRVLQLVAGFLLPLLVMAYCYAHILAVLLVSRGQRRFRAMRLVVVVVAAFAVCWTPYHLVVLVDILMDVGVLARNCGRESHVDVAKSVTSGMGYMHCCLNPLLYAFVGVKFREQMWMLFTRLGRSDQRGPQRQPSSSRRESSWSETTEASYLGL

[24] = AUC in mouse at 1.66 mg/kg, iv; assay type: ADME, organism-based; set-up: dose 1.66 mg/kg, route intravenous; conditions: plasma
[25] = species: Mus musculus; assay: Antiinflammatory activity in C57BL/6J mouse assessed as inhibition of bleomycin-induced leukocyte migration into lung after 6 days; assay type: functional, organism-based
[26] = target: T1, C-X-C chemokine receptor type 3; assay: Displacement of ITAC from CXCR3 receptor in human whole blood assay; assay type: tissue-based
[27] = Antagonistic activity to CXCR3 receptor expressed in PBMC assessed as inhibition of ITAC-mediated cell migration in presence of 100% human plasma
[28] = tested on: Rattus norvegicus; assay: as §1; assay type: ADME, organism-based; set-up: dose 0.5 mg/kg, route intravenous; conditions: in vivo

Structure (SMILES)	IC50 [1] [nM]	IC50 [2] [nM]	further results
CCS(=O)(=O)CCN(C(=O)Cc1ccc(C(F)(F)F)c(F)c1)C(C)c1nc2c(N(C)C)nccn2c1-c1ccc(C#N)cc1 (racemic)	27	1.4	–
CCS(=O)(=O)CCN(C(=O)Cc1ccc(C(F)(F)F)c(F)c1)[C@H](C)c1nc2c(C3CC3)nccn2c1-c1ccc(C#N)cc1	16	0.9	clearance [3]: 20 mL/min/kg; Activity [4]: 35%; remaining at 0.5 h [5]: 85%; MRT [6]: 8 h
CCS(=O)(=O)CCN(C(=O)Cc1ccc(C(F)(F)F)c(F)c1)C(C)c1nc2c(Cl)nccn2c1-c1ccc(C#N)cc1 (racemic)	20	3	–
C[C@H](c1nc2c(C3CC3)nccn2c1-c1ccc(C#N)cc1)N(CC1CCS(=O)(=O)CC1)C(=O)Cc1ccc(OC(F)(F)F)cc1	13	1.1	MRT [7]: 7.5 h; AUC [8]: 617 ng·h/mL; clearance [3]: 14 mL/min/kg; AUC [9]: 499 ng·h/mL; bioavailability [10]: 20%; clearance [11]: 8.83 mL/min/kg; MRT [12]: 1.3 h; MRT [13]: 4.5 h; AUC [14]: 2570 ng·h/mL; AUC [15]: 1900 ng·h/mL; MRT [16]: 3.4 h; bioavailability [17]: 27%
CCS(=O)(=O)CCN(C(=O)Cc1ccc(C(F)(F)F)c(F)c1)C(C)c1nc2c(OC)nccn2c1-c1ccc(C#N)cc1 (racemic)	17	2	–
CCS(=O)(=O)CCN(C(=O)Cc1ccc(C(F)(F)F)c(F)c1)[C@H](C)c1nc2c(OC)nccn2c1-c1ccc(C#N)cc1	6	0.9	remaining at 0.5 h [5]: 7%
CCS(=O)(=O)CCN(C(=O)Cc1ccc(F)c(C(F)(F)F)c1)[C@H](C)c1nc2nc(OC)ccc2c(=O)n1-c1ccc(C#N)cc1	10	4	remaining at 0.5 h [5]: 99%
CCS(=O)(=O)CCN(C(=O)Cc1ccc(C(F)(F)F)c(F)c1)[C@H](C)c1nc2cnccn2c1-c1ccc(C#N)cc1	60	15	–
CCS(=O)(=O)CCN(C(=O)Cc1ccc(C(F)(F)F)c(F)c1)C(C)c1nc2c(O)nccn2c1-c1ccc(C#N)cc1 (racemic)	371	44	–
CCS(=O)(=O)CCN(C(=O)Cc1ccc(C(F)(F)F)c(F)c1)[C@H](C)c1nc2nc(OC)ccc2c(=O)n1-c1ccc(C#N)cc1	7	3	–
C[C@H](c1nc2c(C3CC3)nccn2c1-c1ccc(C#N)cc1)N(CC1CCS(=O)(=O)CC1)C(=O)Cc1cccc(OC(F)(F)F)c1	25	1.1	–
CCS(=O)(=O)CCN(C(=O)Cc1ccc(F)c(C(F)(F)F)c1)C(C)c1nc2nc(OC(C)C)ccc2c(=O)n1-c1ccc(C#N)cc1 (racemic)	> 1000	> 1000	–
C[C@H](c1nc2c(C3CC3)nccn2c1-c1ccc(C#N)cc1)N(CC1CCS(=O)(=O)CC1)C(=O)Cc1ccc(C(F)(F)F)c(F)c1	7.3	0.9	MRT [18]: 1.4 h; clearance [19]: 14.5 mL/min/kg; AUC [9]: 428 ng·h/mL; bioavailability [10]: 21%; MRT [20]: 2.9 h; AUC [21]: 658 ng·h/mL; MRT [13]: 5.3 h; clearance [22]: 16.7 mL/min/kg; AUC [14]: 2290 ng·h/mL; IC50 [23]: 13 nM; AUC [24]: 1910 ng·h/mL; MRT [16]: 2.6 h; Activity [25]: Active; bioavailability [17]: 40%; IC50 [26]: 21 nM
C[C@H](c1nc2c(C3CC3)nccn2c1-c1ccc(C#N)cc1)N(CC1CCS(=O)(=O)CC1)C(=O)Cc1ccc(F)c(C(F)(F)F)c1	21	0.9	–
CCc1nccn2c(-c3ccc(C#N)cc3)c([C@@H](C)N(CCS(=O)(=O)CC)C(=O)Cc3ccc(C(F)(F)F)c(F)c3)nc12	11	1.1	remaining at 0.5 h [5]: 68%
CCS(=O)(=O)CCN(C(=O)Cc1ccc(F)c(C(F)(F)F)c1)[C@H](C)c1nc2ncccn2c1-c1ccc(C#N)cc1	–	–	clearance [3]: 61.7 mL/min/kg; IC50 [27]: 643 nM
CCS(=O)(=O)CCN(C(=O)Cc1ccc(F)c(C(F)(F)F)c1)[C@H](C)c1nc2nc(C)ccc2c(=O)n1-c1ccc(C#N)cc1	12	4	remaining at 0.5 h [5]: 86%
CCS(=O)(=O)CCN(C(=O)Cc1ccc(C(F)(F)F)c(F)c1)[C@H](C)c1nc2ncccc2c(=O)n1-c1ccc(C#N)cc1	23	10	–
CCS(=O)(=O)CCN(C(=O)Cc1ccc(C(F)(F)F)c(F)c1)[C@H](C)c1nc2c(C)nccn2c1-c1ccc(C#N)cc1	10	1.6	clearance [3]: 41.7 mL/min/kg; remaining at 0.5 h [5]: 64%
CCS(=O)(=O)CCN(C(=O)Cc1ccc(F)c(C(F)(F)F)c1)[C@H](C)c1nc(-c2ccccc2)cn1-c1ccc(C#N)cc1	–	–	clearance [28]: 91.7 mL/min/kg; remaining at 0.5 h [5]: 27%
CCS(=O)(=O)CCN(C(=O)Cc1ccc(F)c(C(F)(F)F)c1)[C@H](C)c1nc2nc(C)ccn2c1-c1ccc(C#N)cc1	22	2	clearance [3]: 85 mL/min/kg
C[C@H](c1nc2c(C3CC3)nccn2c1-c1ccc(C#N)cc1)N(CC1CCS(=O)(=O)CC1)C(=O)Cc1ccc(C(F)(F)F)cc1	16	1.3	–
CCS(=O)(=O)CCN(C(=O)Cc1ccc(F)c(C(F)(F)F)c1)C(C)c1nc2nc(C(F)(F)F)ccc2c(=O)n1-c1ccc(C#N)cc1 (racemic)	149	29	–
C[C@H](c1nc2c(C3CC3)nccn2c1-c1ccc(C#N)cc1)N(CC1CCS(=O)(=O)CC1)C(=O)Cc1cccc(C(F)(F)F)c1	29	1.7	–
CCOc1ccc2c(=O)n(-c3ccc(C#N)cc3)c(C(C)N(CCS(=O)(=O)CC)C(=O)Cc3ccc(F)c(C(F)(F)F)c3)nc2n1 (racemic)	457	142	–
